# According to PMC12090182, “Repurposing of the RIPK1-Selective Benzo[1,4]oxazepin-4-one Scaffold for the Development of a Type III LIMK1/2 Inhibitor” (ACS Chemical Biology, 2025):
# Experiments:
# Test in all cases: scanMAX KINOMEscan (Eurofins)
# Type in all cases: binding
# ACVR1 = ACVR1 (Homo sapiens, UniProt Q04771); details: 1000 nM, read-out: Percent Control
# From the text: (§1) Supplement cb5c00097_si_002.xlsx, sheet "Table S6 (Eurofins Selectivity)" | column: Percent Control
# ACVRL1 = ACVRL1 (Homo sapiens, UniProt P37023); details: 1000 nM, read-out: Percent Control
# From the text: as §1
# AXL = AXL (Homo sapiens, UniProt P30530); details: read-out: Percent Control
# From the text: as §1
# BMPR1B = BMPR1B (Homo sapiens, UniProt O00238); details: read-out: Percent Control
# From the text: as §1
# BRSK2 = BRSK2 (Homo sapiens, UniProt Q8IWQ3); details: read-out: Percent Control
# From the text: as §1
# CAMKK2 = CAMKK2 (Homo sapiens, UniProt Q96RR4); details: 1000 nM, read-out: Percent Control
# From the text: as §1
# CDK2 = CDK2 (Homo sapiens, UniProt P24941); details: 1000 nM, read-out: Percent Control
# From the text: as §1
# CSNK1G1 = CSNK1G1 (Homo sapiens, UniProt Q9HCP0); details: 1000 nM, read-out: Percent Control
# From the text: as §1
# CSNK1G3 = CSNK1G3 (Homo sapiens, UniProt Q9Y6M4); details: read-out: Percent Control
# From the text: as §1
# CSNK2A1 = CSNK2A1 (Homo sapiens, UniProt P68400); details: read-out: Percent Control
# From the text: as §1
# DAPK2 = DAPK2 (Homo sapiens, UniProt Q9UIK4); details: 1000 nM, read-out: Percent Control
# From the text: as §1
# DDR1 = DDR1 (Homo sapiens, UniProt Q08345); details: read-out: Percent Control
# From the text: as §1
# EPHB3 = EPHB3 (Homo sapiens, UniProt P54753); details: read-out: Percent Control
# From the text: as §1
# ERK3 = ERK3 (Homo sapiens, UniProt Q16659); details: read-out: Percent Control
# From the text: as §1
# FGFR2 = FGFR2 (Homo sapiens, UniProt P21802); details: read-out: Percent Control
# From the text: as §1
# GAK = GAK (Homo sapiens, UniProt O14976); details: read-out: Percent Control
# From the text: as §1
# HIPK2 = HIPK2 (Homo sapiens, UniProt Q9H2X6); details: 1000 nM, read-out: Percent Control
# From the text: as §1
# HIPK3 = HIPK3 (Homo sapiens, UniProt Q9H422); details: 1000 nM, read-out: Percent Control
# From the text: as §1
# [1] = target: JAK1(JH1domain-catalytic) (Homo sapiens, UniProt P23458); details: 1000 nM, read-out: Percent Control
# From the text: as §1
# MAP3K4 = MAP3K4 (Homo sapiens, UniProt Q9Y6R4); details: 1000 nM, read-out: Percent Control
# From the text: as §1
# MAST1 = MAST1 (Homo sapiens, UniProt Q9Y2H9); details: 1000 nM, read-out: Percent Control
# From the text: as §1
# MEK2 = MEK2 (Homo sapiens, UniProt P36507); details: compound concentration 100 nM; Entrez MAP2K2; read-out: Percent Control
# From the text: as §1
# MEK6 = MEK6 (Homo sapiens, UniProt P52564); details: compound concentration 100 nM; Entrez MAP2K6; read-out: Percent Control
# From the text: as §1
# MTOR = MTOR (Homo sapiens, UniProt P42345); details: compound concentration 100 nM; Entrez MTOR; read-out: Percent Control
# From the text: as §1
# NEK4 = NEK4 (Homo sapiens, UniProt P51957); details: compound concentration 100 nM; Entrez NEK4; read-out: Percent Control
# From the text: as §1
# NEK7 = NEK7 (Homo sapiens, UniProt Q8TDX7); details: 1000 nM, read-out: Percent Control
# From the text: as §1
# PDPK1 = PDPK1 (Homo sapiens, UniProt O15530); details: 1000 nM, read-out: Percent Control
# From the text: as §1
# PFPK5(P.falciparum) = PFPK5(P.falciparum) (Plasmodium falciparum, UniProt P61075); details: 1000 nM, read-out: Percent Control
# From the text: as §1
# PIM2 = PIM2 (Homo sapiens, UniProt Q9P1W9); details: 1000 nM, read-out: Percent Control
# From the text: as §1
# PRKG1 = PRKG1 (Homo sapiens, UniProt Q13976); details: 1000 nM, read-out: Percent Control
# From the text: as §1
# [2] = target: RSK1(Kin.Dom.1-N-terminal) (Homo sapiens, UniProt Q15418); details: compound concentration 100 nM; Entrez RPS6KA1; read-out: Percent Control
# From the text: as §1
# SIK2 = SIK2 (Homo sapiens, UniProt Q9H0K1); details: compound concentration 100 nM; Entrez SIK2; read-out: Percent Control
# From the text: as §1
# SLK = SLK (Homo sapiens, UniProt Q9H2G2); details: 1000 nM, read-out: Percent Control
# From the text: as §1
# STK16 = STK16 (Homo sapiens, UniProt O75716); details: compound concentration 100 nM; Entrez STK16; read-out: Percent Control
# From the text: as §1
# YSK4 = YSK4 (Homo sapiens, UniProt Q56UN5); details: compound concentration 100 nM; Entrez MAP3K19; read-out: Percent Control
# From the text: as §1
# CSNK2A1, sequence (P68400 whole entry): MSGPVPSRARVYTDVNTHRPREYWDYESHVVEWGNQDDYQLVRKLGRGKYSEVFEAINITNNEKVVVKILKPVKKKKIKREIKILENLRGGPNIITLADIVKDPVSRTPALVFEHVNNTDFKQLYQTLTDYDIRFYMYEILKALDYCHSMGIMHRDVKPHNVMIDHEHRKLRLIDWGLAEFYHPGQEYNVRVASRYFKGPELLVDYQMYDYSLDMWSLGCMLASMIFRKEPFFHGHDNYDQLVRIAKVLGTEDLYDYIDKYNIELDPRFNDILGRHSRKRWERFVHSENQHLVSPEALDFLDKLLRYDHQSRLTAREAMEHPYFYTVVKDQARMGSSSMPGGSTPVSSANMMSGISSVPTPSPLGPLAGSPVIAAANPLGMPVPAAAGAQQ
# AXL, sequence (P30530 26-894): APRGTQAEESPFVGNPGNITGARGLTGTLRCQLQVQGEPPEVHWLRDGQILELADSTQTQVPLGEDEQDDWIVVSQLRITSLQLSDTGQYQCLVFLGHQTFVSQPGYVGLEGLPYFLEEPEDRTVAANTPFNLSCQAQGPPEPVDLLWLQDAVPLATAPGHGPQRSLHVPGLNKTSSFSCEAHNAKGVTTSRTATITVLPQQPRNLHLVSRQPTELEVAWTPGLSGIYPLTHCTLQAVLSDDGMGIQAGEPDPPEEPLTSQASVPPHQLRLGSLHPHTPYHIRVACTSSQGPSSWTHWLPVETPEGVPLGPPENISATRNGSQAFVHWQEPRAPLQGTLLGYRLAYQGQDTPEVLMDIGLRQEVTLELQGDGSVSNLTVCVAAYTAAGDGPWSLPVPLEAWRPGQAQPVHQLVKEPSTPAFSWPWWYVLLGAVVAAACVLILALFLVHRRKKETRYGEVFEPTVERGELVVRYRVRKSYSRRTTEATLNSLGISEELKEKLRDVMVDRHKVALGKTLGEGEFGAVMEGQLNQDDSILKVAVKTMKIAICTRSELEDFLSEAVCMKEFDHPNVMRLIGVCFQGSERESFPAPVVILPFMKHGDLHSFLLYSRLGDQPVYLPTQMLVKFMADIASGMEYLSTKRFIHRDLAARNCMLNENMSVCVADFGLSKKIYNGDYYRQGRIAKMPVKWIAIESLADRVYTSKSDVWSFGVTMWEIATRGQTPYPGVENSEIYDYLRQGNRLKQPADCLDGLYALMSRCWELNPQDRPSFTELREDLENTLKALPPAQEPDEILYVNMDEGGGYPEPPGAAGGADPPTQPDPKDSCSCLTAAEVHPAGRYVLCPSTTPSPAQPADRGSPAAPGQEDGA
# GAK, sequence (O14976 whole entry): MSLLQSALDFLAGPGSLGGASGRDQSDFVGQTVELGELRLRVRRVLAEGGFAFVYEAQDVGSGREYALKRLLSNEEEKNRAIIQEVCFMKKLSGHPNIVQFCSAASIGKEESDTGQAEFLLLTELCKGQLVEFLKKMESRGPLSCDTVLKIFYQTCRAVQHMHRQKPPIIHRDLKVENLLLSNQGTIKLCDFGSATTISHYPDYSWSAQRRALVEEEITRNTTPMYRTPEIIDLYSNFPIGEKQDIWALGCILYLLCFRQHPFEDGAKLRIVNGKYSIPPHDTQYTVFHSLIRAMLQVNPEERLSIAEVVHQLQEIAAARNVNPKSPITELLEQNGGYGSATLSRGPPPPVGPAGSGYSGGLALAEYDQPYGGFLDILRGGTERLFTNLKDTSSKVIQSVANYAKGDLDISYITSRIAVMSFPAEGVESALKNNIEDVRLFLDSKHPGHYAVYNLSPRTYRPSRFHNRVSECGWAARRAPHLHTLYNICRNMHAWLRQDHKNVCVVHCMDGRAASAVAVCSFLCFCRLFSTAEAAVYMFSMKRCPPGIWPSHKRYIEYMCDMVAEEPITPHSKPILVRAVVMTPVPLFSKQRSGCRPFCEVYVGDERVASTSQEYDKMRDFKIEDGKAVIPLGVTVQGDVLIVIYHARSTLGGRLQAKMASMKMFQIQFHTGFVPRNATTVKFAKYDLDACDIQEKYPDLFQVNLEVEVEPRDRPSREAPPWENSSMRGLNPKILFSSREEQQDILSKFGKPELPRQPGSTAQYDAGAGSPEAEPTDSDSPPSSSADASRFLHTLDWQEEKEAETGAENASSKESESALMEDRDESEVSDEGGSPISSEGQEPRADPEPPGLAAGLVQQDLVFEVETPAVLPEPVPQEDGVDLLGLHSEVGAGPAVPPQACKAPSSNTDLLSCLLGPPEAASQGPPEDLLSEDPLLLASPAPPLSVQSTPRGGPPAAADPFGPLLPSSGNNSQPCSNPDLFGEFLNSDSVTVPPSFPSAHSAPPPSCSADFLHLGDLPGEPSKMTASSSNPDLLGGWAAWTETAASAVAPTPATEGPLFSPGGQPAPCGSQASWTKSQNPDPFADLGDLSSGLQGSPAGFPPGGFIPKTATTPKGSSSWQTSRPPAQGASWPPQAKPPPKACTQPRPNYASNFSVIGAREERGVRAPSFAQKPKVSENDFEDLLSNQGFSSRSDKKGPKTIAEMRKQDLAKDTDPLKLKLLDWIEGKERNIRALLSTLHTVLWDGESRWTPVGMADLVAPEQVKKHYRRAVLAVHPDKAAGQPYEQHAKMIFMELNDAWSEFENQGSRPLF
# CSNK1G3, sequence (Q9Y6M4 whole entry): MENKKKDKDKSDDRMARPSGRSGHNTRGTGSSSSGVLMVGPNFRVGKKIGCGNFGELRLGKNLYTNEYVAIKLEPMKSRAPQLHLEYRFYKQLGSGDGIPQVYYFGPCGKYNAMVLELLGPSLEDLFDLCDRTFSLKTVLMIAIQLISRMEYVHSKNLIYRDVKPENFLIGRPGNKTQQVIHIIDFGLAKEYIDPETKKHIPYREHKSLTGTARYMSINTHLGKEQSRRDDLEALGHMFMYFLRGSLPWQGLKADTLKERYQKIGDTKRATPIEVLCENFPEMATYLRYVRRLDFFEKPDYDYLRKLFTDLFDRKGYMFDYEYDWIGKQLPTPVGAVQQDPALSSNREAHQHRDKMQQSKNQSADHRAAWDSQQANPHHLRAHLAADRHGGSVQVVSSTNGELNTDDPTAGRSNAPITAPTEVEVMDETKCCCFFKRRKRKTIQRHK
# EPHB3, sequence (P54753 34-998): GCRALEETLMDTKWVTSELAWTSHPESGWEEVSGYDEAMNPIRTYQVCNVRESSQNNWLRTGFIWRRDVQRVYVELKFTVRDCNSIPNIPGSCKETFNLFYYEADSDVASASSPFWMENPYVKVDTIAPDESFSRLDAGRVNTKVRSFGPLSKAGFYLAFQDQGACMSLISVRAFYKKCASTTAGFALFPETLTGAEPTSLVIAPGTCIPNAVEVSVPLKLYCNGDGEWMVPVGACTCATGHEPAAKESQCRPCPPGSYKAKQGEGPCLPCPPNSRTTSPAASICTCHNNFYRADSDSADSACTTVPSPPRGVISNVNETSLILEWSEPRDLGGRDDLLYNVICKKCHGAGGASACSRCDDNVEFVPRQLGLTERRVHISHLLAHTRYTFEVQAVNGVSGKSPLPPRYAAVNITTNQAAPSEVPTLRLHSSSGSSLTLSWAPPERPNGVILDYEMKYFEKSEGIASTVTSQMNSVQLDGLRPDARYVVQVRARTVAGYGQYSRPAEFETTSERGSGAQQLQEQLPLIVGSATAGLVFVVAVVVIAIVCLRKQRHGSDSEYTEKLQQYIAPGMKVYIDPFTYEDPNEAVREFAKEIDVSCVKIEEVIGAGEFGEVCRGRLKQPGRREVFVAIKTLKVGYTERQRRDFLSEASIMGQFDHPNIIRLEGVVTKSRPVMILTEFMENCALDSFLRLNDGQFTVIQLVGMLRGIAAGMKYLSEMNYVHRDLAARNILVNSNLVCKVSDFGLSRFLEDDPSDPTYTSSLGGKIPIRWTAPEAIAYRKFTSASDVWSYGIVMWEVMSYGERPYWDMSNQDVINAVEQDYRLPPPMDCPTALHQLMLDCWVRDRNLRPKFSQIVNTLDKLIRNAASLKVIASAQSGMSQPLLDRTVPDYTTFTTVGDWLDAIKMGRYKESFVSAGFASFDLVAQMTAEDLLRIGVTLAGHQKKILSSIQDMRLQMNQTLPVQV
# BRSK2, sequence (Q8IWQ3 whole entry): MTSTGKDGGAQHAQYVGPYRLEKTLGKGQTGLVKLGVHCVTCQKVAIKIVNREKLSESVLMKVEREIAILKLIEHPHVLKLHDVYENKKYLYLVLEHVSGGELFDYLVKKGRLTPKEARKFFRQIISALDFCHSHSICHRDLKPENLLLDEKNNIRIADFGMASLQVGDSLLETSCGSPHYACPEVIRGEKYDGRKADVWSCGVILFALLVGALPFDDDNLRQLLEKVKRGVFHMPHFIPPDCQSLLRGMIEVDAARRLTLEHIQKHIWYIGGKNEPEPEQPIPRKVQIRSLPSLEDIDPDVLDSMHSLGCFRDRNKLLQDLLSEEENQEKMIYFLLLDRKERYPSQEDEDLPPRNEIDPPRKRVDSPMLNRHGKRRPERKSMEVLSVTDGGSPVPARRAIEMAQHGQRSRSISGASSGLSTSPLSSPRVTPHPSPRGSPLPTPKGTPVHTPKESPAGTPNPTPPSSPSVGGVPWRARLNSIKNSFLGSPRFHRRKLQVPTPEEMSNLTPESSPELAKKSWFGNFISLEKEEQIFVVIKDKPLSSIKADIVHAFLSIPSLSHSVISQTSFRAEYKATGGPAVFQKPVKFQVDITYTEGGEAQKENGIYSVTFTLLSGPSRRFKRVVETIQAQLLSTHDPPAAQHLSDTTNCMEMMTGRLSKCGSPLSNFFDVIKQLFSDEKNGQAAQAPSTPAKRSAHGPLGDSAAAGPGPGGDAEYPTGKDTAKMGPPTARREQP
# RSK1(Kin.Dom.1-N-terminal), sequence (Q15418 62-391): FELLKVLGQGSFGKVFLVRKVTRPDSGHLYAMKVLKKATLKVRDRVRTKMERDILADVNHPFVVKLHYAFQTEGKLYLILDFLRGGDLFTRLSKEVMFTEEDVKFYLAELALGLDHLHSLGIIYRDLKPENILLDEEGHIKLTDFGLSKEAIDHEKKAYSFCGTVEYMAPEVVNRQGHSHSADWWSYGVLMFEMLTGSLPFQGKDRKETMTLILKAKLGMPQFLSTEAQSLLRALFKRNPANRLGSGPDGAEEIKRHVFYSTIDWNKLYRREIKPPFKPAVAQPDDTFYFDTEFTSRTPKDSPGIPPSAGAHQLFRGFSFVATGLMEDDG
smiles,measurement,setting,value
"CN1C(=O)[C@@H](N2CCc3c(nn(Cc4ccccc4)c3C(N)=O)C2=O)COc2cc(Cl)ccc21 [Compound 10, (S)-2-benzyl-6-(8-chloro-5-methyl-4-oxo-2,3,4,5-tetrahydrobenzo[b][1,4]oxazepin-3-yl)-7-oxo-4,5,6,7-tetrahydro-2H-pyrazolo[3,4-c]pyridine-3-carboxamide]",remaining binding at 1 µM,ACVR1,91%
same,remaining binding at 1 µM,ACVRL1,91%
same,remaining binding at 1 µM,AXL; 1000 nM,100%
same,remaining binding at 0.1 µM,"AXL; compound concentration 100 nM, Entrez AXL",95%
same,remaining binding at 1 µM,BMPR1B; 1000 nM,100%
same,remaining binding at 0.1 µM,"BMPR1B; compound concentration 100 nM, Entrez BMPR1B",88%
same,remaining binding at 1 µM,BRSK2; 1000 nM,100%
same,remaining binding at 0.1 µM,"BRSK2; compound concentration 100 nM, Entrez BRSK2",85%
same,remaining binding at 1 µM,CAMKK2,80%
same,remaining binding at 1 µM,CDK2,92%
same,remaining binding at 1 µM,CSNK1G1,91%
same,remaining binding at 1 µM,CSNK1G3; 1000 nM,100%
same,remaining binding at 0.1 µM,"CSNK1G3; compound concentration 100 nM, Entrez CSNK1G3",98%
same,remaining binding at 1 µM,CSNK2A1; 1000 nM,100%
same,remaining binding at 0.1 µM,"CSNK2A1; compound concentration 100 nM, Entrez CSNK2A1",82%
same,remaining binding at 1 µM,DAPK2,86%
same,remaining binding at 1 µM,DDR1; 1000 nM,100%
same,remaining binding at 0.1 µM,"DDR1; compound concentration 100 nM, Entrez DDR1",77%
same,remaining binding at 1 µM,EPHB3; 1000 nM,100%
same,remaining binding at 0.1 µM,"EPHB3; compound concentration 100 nM, Entrez EPHB3",71%
same,remaining binding at 1 µM,ERK3; 1000 nM,100%
same,remaining binding at 0.1 µM,"ERK3; compound concentration 100 nM, Entrez MAPK6",87%
same,remaining binding at 1 µM,FGFR2; 1000 nM,100%
same,remaining binding at 0.1 µM,"FGFR2; compound concentration 100 nM, Entrez FGFR2",100%
same,remaining binding at 1 µM,GAK; 1000 nM,100%
same,remaining binding at 0.1 µM,"GAK; compound concentration 100 nM, Entrez GAK",87%
same,remaining binding at 1 µM,HIPK2,81%
same,remaining binding at 1 µM,HIPK3,94%
same,remaining binding at 1 µM,[1],89%
same,remaining binding at 1 µM,MAP3K4,92%
same,remaining binding at 1 µM,MAST1,75%
same,remaining binding at 0.1 µM,MEK2,94%
same,remaining binding at 0.1 µM,MEK6,88%
same,remaining binding at 0.1 µM,MTOR,86%
same,remaining binding at 0.1 µM,NEK4,91%
same,remaining binding at 1 µM,NEK7,93%
same,remaining binding at 1 µM,PDPK1,91%
same,remaining binding at 1 µM,PFPK5(P.falciparum),66%
same,remaining binding at 1 µM,PIM2,91%
same,remaining binding at 1 µM,PRKG1,91%
same,remaining binding at 0.1 µM,[2],75%
same,remaining binding at 0.1 µM,SIK2,71%
same,remaining binding at 1 µM,SLK,78%
same,remaining binding at 0.1 µM,STK16,80%
same,remaining binding at 0.1 µM,YSK4,88%
